Experimental data as given in publication PMC5572576 (The Lancet. Oncology, 2017).

Test system: patients with R/R AML
Conditions: in vivo

CCc1nc(C(N)=O)c(Nc2ccc(N3CCC(N4CCN(C)CC4)CC3)c(OC)c2)nc1NC1CCOCC1 [gilteritinib]
Elevated blood phosphocreatine kinase, Grade 4 (human): 4 (1·6%) n (%)
Epistaxis, Grade 1 (human): 36 (14%) n (%)
Epistaxis, Grade 2 (human): 9 (4%) n (%)
Fall, Grade 1 (human): 17 (7%) n (%)
Fall, Grade 2 (human): 10 (4%) n (%)
Fall, Grade 3 (human): 7 (3%) n (%)
Fall, Grade 4 (human): 1 (0.4) n (%)
Fatigue, Grade 1 (human): 31 (12%) n (%)
Fatigue, Grade 2 (human): 37 (15%) n (%)
Fatigue, Grade 3 (human): 15 (6%) n (%)
Febrile neutropenia, Grade 3 (human): 9 (36%) n (%)
Febrile neutropenia, Grade 4 (human): 7 (3%) n (%)
Febrile neutropenia, Grade 5 (human): 1 (0·4%) n (%)
Fungal pneumonia, Grade 3 (human): 11 (4%) n (%)
Gastrointestinal hemorrhage, Grade 3 (human): 4 (1·6%) n (%)
Gastrointestinal hemorrhage, Grade 4 (human): 1 (0·4%) n (%)
Grade 3/4 adverse event: anemia (human): 24%
Grade 3/4 adverse event: febrile neutropenia (human): 39%
Grade 3/4 adverse event: pneumonia (human): 11%
Grade 3/4 adverse event: sepsis (human): 11%
Grade 3/4 adverse event: thromobocytopenia (human): 13%
Headache, Grade 1 (human): 22 (9%) n (%)
Headache, Grade 2 (human): 6 (2%) n (%)
Hyperglycemia, Grade 3 (human): 8 (3%) n (%)
Hyperglycemia, Grade 4 (human): 1 (0·4%) n (%)
Hyperphosphatemia, Grade 3 (human): 14 (6%) n (%)
Hyperphosphatemia, Grade 4 (human): 3 (1·2%) n (%)
Hypertension, Grade 1 (human): 6 (2%) n (%)
Hypertension, Grade 2 (human): 11 (4%) n (%)
Hypertension, Grade 3 (human): 8 (3%) n (%)
Hyperuricemia, Grade 3 (human): 5 (2%) n (%)
Hyperuricemia, Grade 4 (human): 1 (0·4%) n (%)
Hypoalbuminemia, Grade 1 (human): 5 (2%) n (%)
Hypoalbuminemia, Grade 2 (human): 22 (9%) n (%)
Hypoalbuminemia, Grade 3 (human): 5 (2%) n (%)
Hypocalcaemia, Grade 1 (human): 13 (5%) n (%)
Hypocalcaemia, Grade 2 (human): 15 (6%) n (%)
Hypocalcaemia, Grade 3 (human): 14 (6%) n (%)
Hypocalcaemia, Grade 4 (human): 1 (0·4%) n (%)
Hypokalaemia, Grade 1 (human): 22 (9%) n (%)
Hypokalaemia, Grade 2 (human): 14 (6%) n (%)
Hypokalaemia, Grade 3 (human): 7 (3%) n (%)
Hypokalaemia, Grade 4 (human): 2 (0·8%) n (%)
Hypomagnesemia, Grade 1 (human): 29 (12%) n (%)
Hypomagnesemia, Grade 2 (human): 2 (0·8%) n (%)
Hyponatraemia, Grade 1 (human): 18 (7%) n (%)
Hyponatraemia, Grade 2 (human): 4 (1·6%) n (%)
Hyponatraemia, Grade 3 (human): 10 (4%) n (%)
Hyponatraemia, Grade 4 (human): 2 (0·8%) n (%)
Hypotension, Grade 1 (human): 7 (3%) n (%)
Hypotension, Grade 2 (human): 21 (8%) n (%)
Hypotension, Grade 3 (human): 16 (6%) n (%)
Hypotension, Grade 4 (human): 2 (0·8%) n (%)
Hypoxia, Grade 1 (human): 1 (0·4%) n (%)
Hypoxia, Grade 2 (human): 8 (3%) n (%)
Hypoxia, Grade 3 (human): 13 (5%) n (%)
Hypoxia, Grade 4 (human): 5(2%) n (%)
Hypoxia, Grade 5 (human): 1 (0·4%) n (%)
Increased transaminase, Grade 3 (human): 6 (2%) n (%)
Insomnia, Grade 1 (human): 14 (6%) n (%)
Insomnia, Grade 2 (human): 10 (4%) n (%)
Leukocytosis, Grade 3 (human): 9 (4%) n (%)
Leukocytosis, Grade 4 (human): 2 (0·8%) n (%)
Leukopenia, Grade 3 (human): 2 (0·8%) n (%)
Leukopenia, Grade 4 (human): 3 (1·2%) n (%)
Lung infection, Grade 3 (human): 7 (3%) n (%)
Lung infection, Grade 5 (human): 1 (0·4%) n (%)
Mucosal inflammation, Grade 3 (human): 5 (2%) n (%)
Mucosal inflammation, Grade 4 (human): 2 (0·8%) n (%)
Multi-organ failure, Grade 5 (human): 7 (3%) n (%)
Muscle weakness, Grade 3 (human): 5 (2%) n (%)
Nausea, Grade 1 (human): 30 (12%) n (%)
Nausea, Grade 2 (human): 19 (8%) n (%)
Nausea, Grade 3 (human): 5 (2%) n (%)
Neutropenia, Grade 2 (human): 2 (0·8%) n (%)
Neutropenia, Grade 3 (human): 2 (0·8%) n (%)
Neutropenia, Grade 4 (human): 18 (7%) n (%)
Neutropenia, Grade 5 (human): 1 (0·4%) n (%)
Patients requiring dose reductions (human): 10%
Patients with maximum post-baseline QTcF interval >500 ms (human): 4%
Pleural effusion, Grade 3 (human): 5 (2%) n (%)
Pneumonia, Grade 1 (human): 1 (0·4%) n (%)
Pneumonia, Grade 2 (human): 3 (1·2%) n (%)
Pneumonia, Grade 3 (human): 26 (10%) n (%)
Pneumonia, Grade 4 (human): 1 (0·4%) n (%)
Pneumonia, Grade 5 (human): 4 (1·6%) n (%)
Progressive AML, Grade 3 (human): 2 (0.8) n (%)
Progressive AML, Grade 5 (human): 41 (16%) n (%)
Pyrexia, Grade 1 (human): 36 (14%) n (%)
Pyrexia, Grade 2 (human): 16 (6%) n (%)
Pyrexia, Grade 3 (human): 13 (5%) n (%)
QT Prolongation, Grade 3 (human): 8 (3%) n (%)
Respiratory failure, Grade 3 (human): 2 (0·8%) n (%)
Respiratory failure, Grade 4 (human): 5 (2%) n (%)
Respiratory failure, Grade 5 (human): 7 (3%) n (%)
Sepsis, Grade 2 (human): 1 (0·4%) n (%)
Sepsis, Grade 3 (human): 5 (2%) n (%)
Sepsis, Grade 4 (human): 23 (9%) n (%)
Sepsis, Grade 5 (human): 7 (3%) n (%)
Septic shock, Grade 4 (human): 2 (0·8%) n (%)
Septic shock, Grade 5 (human): 4 (1·6%) n (%)
Serious AE considered related to treatment: acute renal failure (human): 2%
Serious AE considered related to treatment: febrile neutropenia (human): 2%
Serious AE considered related to treatment: pyrexia (human): 1%
Serious AE considered related to treatment: sepsis (human): 1%
Serious adverse event: acute renal failure (human): 10%
Serious adverse event: bacteremia (human): 6%
Serious adverse event: febrile neutropenia (human): 31%
Serious adverse event: pneumonia (human): 11%
Serious adverse event: progressive disease (human): 17%
Serious adverse event: pyrexia (human): 8%
Serious adverse event: respiratory failure (human): 6%
Serious adverse event: sepsis (human): 14%
Skin infection, Grade 3 (human): 5 (2%) n (%)
Stomatitis, Grade 1 (human): 12 (5%) n (%)
Stomatitis, Grade 2 (human): 10 (4%) n (%)
Subdural hematoma, Grade 3 (human): 4 (1·6%) n (%)
Subdural hematoma, Grade 4 (human): 2 (0·8%) n (%)
Syncope, Grade 3 (human): 13 (5%) n (%)
Thrombocytopenia, Grade 1 (human): 1 (0·4%) n (%)
Thrombocytopenia, Grade 2 (human): 5 (2%) n (%)
Thrombocytopenia, Grade 3 (human): 2 (0·8%) n (%)
Thrombocytopenia, Grade 4 (human): 31 (12%) n (%)
Treatment-related mortality from neutropenia (human): < 1%
Vomiting, Grade 1 (human): 35 (14%) n (%)
Vomiting, Grade 2 (human): 7 (3%) n (%)
Vomiting, Grade 3 (human): 5 (2%) n (%)
Deaths considered possibly/probably related to treatment: Seven
